Source: patent US5462926A (Biomeasure, Inc., priority 1993, dated 1995)
Read-outs that look alike come from different tables or passages of the source. Where a SMILES comes first, the peptide text is derived from it. Bridges are numbered along the chain shown (N, C = ends). [ ]: non-standard residue; d: D form. 2Nal = N[C@@H](Cc1ccc2ccccc2c1)C(=O)O; d2Nal = N[C@H](Cc1ccc2ccccc2c1)C(=O)O

Legend:
[1] = molecular target: T1, rat NMB receptor (Rattus norvegicus, UniProt P24053); experiment: Binding of 125I-[D-Tyr0]NMB to NMB-R transfected BALB 3T3 cells
T1 construct: a full length NMB-preferring bombesin receptor clone generated from rat esophagus; expressed in transfected cells
T1 sequence (P24053 1-390): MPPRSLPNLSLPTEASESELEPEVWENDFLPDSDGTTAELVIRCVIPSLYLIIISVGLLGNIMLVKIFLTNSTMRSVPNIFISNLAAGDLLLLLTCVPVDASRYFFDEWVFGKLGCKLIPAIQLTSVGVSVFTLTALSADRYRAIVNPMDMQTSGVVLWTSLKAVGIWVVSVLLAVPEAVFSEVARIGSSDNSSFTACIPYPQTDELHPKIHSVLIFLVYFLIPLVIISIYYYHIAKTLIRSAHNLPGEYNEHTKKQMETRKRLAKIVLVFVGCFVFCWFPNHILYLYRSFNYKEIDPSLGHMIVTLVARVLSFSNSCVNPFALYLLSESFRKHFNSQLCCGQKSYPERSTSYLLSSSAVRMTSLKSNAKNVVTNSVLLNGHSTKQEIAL
Experimental: (§1) Cells were passaged every 3-4 days at confluence, using 0.1% trypsin in 1 mM EDTA. Rat glioblastoma C-6 tumor cells were maintained similarly and were passaged weekly at confluence. Both cell lines were cultured at 37° C. in a 5% CO2 atmosphere. Rat AR 42J pancreatic acinar cells were cultured in Dulbecco's modified Eagle's medium (DMEM) without antibiotics and supplemented with 10% (vol/vol) fetal calf serum. The incubation atmosphere consisted of 10% CO2 -90% humidified air at 37° C.

[2] = molecular target: T2, GRP receptors on rat pancreatic acini (Rattus norvegicus, UniProt P52500); experiment: Binding of 125I-[Tyr4]bombesin to pancreatic acini; conditions: read-out: Ki 125I-[Tyr4]Bn Binding, GRP Receptor, Rat Pancreatic Acini; Ki by Cheng method
T2 construct: from tissue; host or cells: dispersed pancreatic acini
T2 sequence (P52500 whole entry): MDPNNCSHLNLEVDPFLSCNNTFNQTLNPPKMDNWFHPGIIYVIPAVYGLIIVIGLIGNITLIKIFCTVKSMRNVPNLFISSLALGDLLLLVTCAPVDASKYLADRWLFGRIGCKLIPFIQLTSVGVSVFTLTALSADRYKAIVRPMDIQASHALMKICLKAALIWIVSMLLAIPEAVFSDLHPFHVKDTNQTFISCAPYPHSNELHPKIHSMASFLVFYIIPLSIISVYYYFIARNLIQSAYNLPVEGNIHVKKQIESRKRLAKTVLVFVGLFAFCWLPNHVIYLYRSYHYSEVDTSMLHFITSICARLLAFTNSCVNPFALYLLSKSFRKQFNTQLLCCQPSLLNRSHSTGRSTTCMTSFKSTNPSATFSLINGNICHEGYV
Excerpt: Nonsaturable binding was<10% of total binding in all experiments.

[3] = molecular target: T3, somatostatin receptors (Rattus norvegicus, UniProt P30680); experiment: Somatostatin membrane receptor assay, 125I-[Tyr11]SS-14, AR 42J cell membranes; type: binding; conditions: Cheng method; table prints no unit (b360 gives nM for a Table 4 value); read-out: affinity, 125I-[Tyr11]SS-14, AR 42J Cell Membranes (somatostatin receptors)
T3 construct: endogenous in cells; host or cells: rat AR 42J pancreatic acinar tumor cell membranes
T3 sequence (P30680 whole entry): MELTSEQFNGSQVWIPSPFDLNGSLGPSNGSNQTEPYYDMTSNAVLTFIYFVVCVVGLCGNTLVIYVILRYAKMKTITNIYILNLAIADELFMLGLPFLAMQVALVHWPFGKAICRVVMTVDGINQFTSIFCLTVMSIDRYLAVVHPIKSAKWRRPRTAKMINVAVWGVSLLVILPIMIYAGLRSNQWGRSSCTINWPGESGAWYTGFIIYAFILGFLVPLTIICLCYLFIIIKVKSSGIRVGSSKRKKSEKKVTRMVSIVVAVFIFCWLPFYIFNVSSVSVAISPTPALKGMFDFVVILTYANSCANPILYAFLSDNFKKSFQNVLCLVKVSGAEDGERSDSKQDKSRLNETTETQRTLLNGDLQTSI

[4] = molecular target: T4, mu opioid receptors (Rattus norvegicus, UniProt P33535); experiment: Mu opioid membrane assay, [3H]DAGO, rat forebrain membranes; type: binding; conditions: Cheng method; unit inferred; read-out: affinity, [3H]DAGO, Rat Forebrain membranes (mu opioid receptors)
T4 construct: rat forebrain (TRH, mu and delta opioid membrane assays); from tissue; host or cells: rat forebrain membranes
T4 sequence (P33535 whole entry): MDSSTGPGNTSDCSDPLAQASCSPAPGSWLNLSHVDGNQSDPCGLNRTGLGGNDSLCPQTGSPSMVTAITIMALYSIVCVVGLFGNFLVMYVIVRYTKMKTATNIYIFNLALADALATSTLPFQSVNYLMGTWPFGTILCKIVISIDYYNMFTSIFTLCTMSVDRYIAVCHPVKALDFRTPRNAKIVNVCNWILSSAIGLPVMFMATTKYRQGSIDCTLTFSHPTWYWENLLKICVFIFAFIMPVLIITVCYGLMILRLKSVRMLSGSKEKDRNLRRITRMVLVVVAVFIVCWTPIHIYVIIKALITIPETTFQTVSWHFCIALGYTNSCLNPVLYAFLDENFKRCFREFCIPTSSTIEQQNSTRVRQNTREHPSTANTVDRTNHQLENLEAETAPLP

[5] = molecular target: T5, GRP receptor (Rattus norvegicus, UniProt P52500); experiment: Amylase release from rat pancreatic acini (alone or Bn-stimulated); type: cell-based; parameters: from tissue; host or cells: dispersed pancreatic acini; conditions: for Amylase Release, analog Alone (10 μM): analog 10 μM alone, control 4 ± 1; for Amylase Release, analog Plus Bn (0.3 nM): analog 10 μM plus Bn 0.3 nM, Bn without analog 15 ± 1; for IC50: read-out: IC50 Amylase Release, GRP Receptor, Rat Pancreatic Acini
T5 sequence (P52500 whole entry): as the sequence (P52500 whole entry) above
Experimental: pancreatic acini or [^3 H]myo[2H]inositolloaded NMBR transfected cell
were incubated either with no additives, the somatostatin octapeptide
analog, Bn, or NMB, or a combination for 30 min at 37° C.. Amylase
release from pancreatic acini was expressed at the indicated percent of
the total cellular amylase released during the incubation. [^3 H]IP i
expressed in dpm's. To test for inhibitory effects, the effect of
somatostatin analog (10 μM) was determined on 0.3 nM Bnstimulated

[6] = molecular target: T5, GRP receptor; experiment: GRP membrane receptor assay, 125I-[Tyr4]Bn, AR 42J cell membranes; type: binding; parameters: endogenous in cells; host or cells: rat AR 42J pancreatic acinar tumor cell membranes; conditions: read-out: affinity, 125I-[Tyr4]Bn, AR 42J Cell Membranes (GRP receptors); Cheng method; unit inferred
[7] = molecular target: T6, NMB receptor (Rattus norvegicus, UniProt P24053); experiment: [3H]inositol phosphates in NMB-R transfected cells (alone or NMB-stimulated); type: cell-based; parameters: a full length NMB-preferring bombesin receptor clone generated from rat esophagus; expressed in transfected cells; conditions: NMB-R transfected cells; for [3H]IP, analog Alone (10 μM): analog 10 μM alone, control 13 ± 3; for [3H]IP, analog Plus NMB (3 nM): analog 10 μM plus NMB 3 nM, NMB without analog 186 ± 58
T6 sequence (P24053 1-390): T1 sequence (P24053 1-390)
Experimental: as §1, with “As described previously [Wada, E., et al. Neuron 6:421 (1991)], BALB 3T3 cells expressing a stably transfected rat NMB receptor (NMB-R transfected cells) were obtained using calcium phosphate precipitation of a full length NMB-preferring bombesin receptor clone generated from rat esophagus and subcloned into a modified version of the pCD2 plasmid. Cells” for “Cells”
Measurement of phosphoinositides
Total phosphoinositides in C-6 cells and in NMB-R transfected cells were determined as described previously, with minor modifications [Benya, R. V. et al. Mol. Pharmacol. 42:1058 (1992); and Wang, L-H. et al. Biochem. Jo 286:641 (1992)]. Cells were grown to confluence in 24-well plates and then loaded with 100 μCi/ml myo-[2-^3 H]inositol in Dulbecco's modified essential medium with 2% fetal bovine serum at 37° C. for 48 hrs. Cells were washed and incubated in phosphoinositide buffer (standard buffer additionally containing 10 mM LiCl, 20 mM HEPES, 2 mM CaCl2, 2% BSA, and 1.2 mM MgSO4) for 15 min and then for 60 min at 37° C. with agonists at various concentrations or with 3 nM NMB (a half-maximal effective concentration) and possible antagonists at different concentrations. Reactions were halted using ice-cold 1% HCl in methanol, and the inositol phosphates (IP) were isolated as described previously [Bologna, M. et al. Cancer 63:1714 (1989); and Endo, T. et al. J. Endocrinolo 131:313 (1991)]. Briefly, after loading of the anion exchange column, free [^3 H]glycerophosphorylinositol was removed by washing with 5 mM disodium tetraborate in 60 mM sodium formate. Total [^3 H]inositol phosphates were then eluted using 100 mM formic acid in 1.0M ammonium formate as described previously [Benya, R. V. et al. Mol. Pharmacol. 42:1058 (1992); and Wang, L-H. et al. Biochem. J. 286:641 (1992 )].

[8] = molecular target: T6, NMB receptor; experiment: NMB membrane receptor assay, 125I-NMB, rat olfactory bulb membranes; type: binding; parameters: Membranes were prepared from rat olfactory bulb (NMB membrane receptor assay); from tissue; host or cells: rat olfactory bulb membranes; conditions: Cheng method; unit inferred; read-out: affinity, 125I-NMB, Rat Olfactory bulb membranes (neuromedin B receptors)
[9] = NMB-R transfected BALB 3T3 cells, Ki by Cheng method, read-out: Ki 125I-NMB Binding, NMB Receptor, Transfected Cells
[10] = 3 nM NMB, read-out: IC50 NMB-stimulated [3H]IP, NMB Receptor, Transfected Cells

SMILES	Ki [1, 9] [µM]	fold by which cyclo SS-octa is more potent than the analog, 125I-NMB binding ([1]; NMB-R transfected cells) [fold]	Ki ([1]; NMB-R transfected cells, value or range given for a group, read-out: K1, 125I-NMB binding to NMB-R transfected cells (text)) [µM]	fold decrease in NMB receptor affinity compared with cyclo SS-octa (#1) ([1]; structure-function comparison from Table 1) [fold]	Ki [2] [µM]	Ki [3] [nM]	Ki [4] [µM]	Amylase Release, analog Alone (10 μM) [5] [% total]	Amylase Release, analog Plus Bn (0.3 nM) [5] [% total]	IC50 [5] [µM]	Ki [6] [µM]	IC50 [7, 10] [µM]	[3H]IP, analog Alone (10 μM) [7] [dym × 10^3]	[3H]IP, analog Plus NMB (3 nM) [7] [dym × 10^3]	Ki [8] [µM]	IC50 ([7]; 3 nM NMB, read-out: IC50 NMB-stimulated [3H]IP, Transfected Cells (values in μM)) [µM]	effect at 10 μM on NMB-stimulated increase in [3H]IP ([7]; 10 μM, 3 nM NMB)
CC(C)[C@@H]1NC(=O)[C@H](CCCCN)NC(=O)[C@@H](Cc2c[nH]c3ccccc23)NC(=O)[C@H](Cc2ccc(O)cc2)NC(=O)[C@@H](NC(=O)[C@H](N)Cc2ccc3ccccc3c2)CSSC[C@@H](C(=O)N[C@H](Cc2ccc3ccccc3c2)C(N)=O)NC1=O [Analog #8, H2 -D-Nal-Cys-Tyr-D-Trp-Lys-Val-Cys-D-Nal-NH2] (H-[d2Nal]CY[dW]KVC[d2Nal]-NH2; disulfide 2-7)	1.92 ± 0.201	9	1.4 to 2.3	6	> 10	3.9 ± 0.1	0.28	2 ± 1	14 ± 1	> 10	4.1 ± 0.75	5.19 ± 0.987	10 ± 3	67 ± 13	1.48 ± 0.5		
CC(C)[C@@H]1NC(=O)[C@H](CCCCN)NC(=O)[C@@H](Cc2ccc3ccccc3c2)NC(=O)[C@H](Cc2ccc(O)cc2)NC(=O)[C@@H](NC(=O)[C@H](N)Cc2ccc3ccccc3c2)CSSC[C@@H](C(=O)N[C@@H](Cc2ccc3ccccc3c2)C(N)=O)NC1=O [Analog #17, H2 -D-Nal-Cys-Tyr-D-Nal-Lys-Val-Cys-Nal-NH2] (H-[d2Nal]CY[d2Nal]KVC[2Nal]-NH2; disulfide 2-7)	0.399 ± 0.068	2			> 10	570 ± 180	1.57	4 ± 2	19 ± 1	> 10	3.71 ± 0.2	1.78 ± 0.295	12 ± 4	15 ± 2	0.85 ± 0.3	1.2 to 1.8	completely inhibited
